Values after ≈ are worked out from the molar mass of the structure shown.
Assays:
[1] = system: Malassezia pachydermatis (ATCC14522 strain); assay: Malassezia otitis externa effect test (dog) (Test Example 3); assay type: in vivo, dog (Beagle); parameters: Total score (redness, earwax, itching, rash) Immediately before treatment / Total score (redness, earwax, itching, rash) 7 Days after treatment: scale not given here; conditions: for Microbial count (cfu/ml) 7 Days after treatment: 500 ppm agent solution for 1 minute; for Microbial count (cfu/ml) Immediately before treatment: baseline before 500 ppm agent solution; for Total score (redness, earwax, itching, rash) 7 Days after treatment: 5 mL of 500 ppm agent solution for 1 minute; for Improvement rate (%) of microbial count / Improvement rate (%) of symptom total score: 500 ppm for 1 minute, 7 days after treatment; for Total score (redness, earwax, itching, rash) Immediately before treatment: baseline 7 days after inoculation, before 500 ppm agent solution
Procedure: Test Example 3: Malassezia Otitis Externa Effect Test (Dog) Test Variety: Beagle (19 to 20-Month-Old)
Test Microbial Strain: Malassezia Pachydermatis (ATCC14522 Strain)
A colony of the Malassezia microbe pre-cultured (7 days, 30° C.) on a Sabouraud agar medium was suspended in sterilized physiological saline (microbial concentration of 1.0 × 10^6 cells/mL), and 0.1 mL of the resulting suspension was inoculated into both ears of the test animal. 7 Days after the inoculation, both ears were filled with 5 mL of an agent solution (sterilized physiological saline solution supplemented with 5% DMSO) prepared to have a concentration of the test compound of 500 ppm, and after 1 minute, thoroughly washed with sterilized physiological saline solution.
At the same time, the number of the Malassezia microbe present inside the ears of the sample was also investigated by the following method.
The surface of the ear canal was scraped three times using a cotton swab to collect the microbe, and the collected microbe was suspended in 1 mL of PBS (containing 8 g of sodium chloride, 2.9 g of disodium hydrogen phosphate, 0.2 g of potassium chloride, and 0.2 g of potassium dihydrogen phosphate in 1000 mL) supplemented with 1% v/v of Tween80 (polyoxyethylene sorbitan monooleate: manufactured by Kanto Chemical Co., Ltd.) together with the cotton swab. The resulting suspension was serially diluted 10-fold with the PBS, and 0.1 mL thereof was applied to a CHROMagar Malassezia/Candida medium (trade name; peptone, special enzyme substrate mixture, chloramphenicol, olive oil, agar) and cultured at 30° C. for 4 days. After that, the colonies having a pink to purple color were counted, the microbial count score was calculated, and the improvement rate was determined.

[2] = system: Malassezia pachydermatis (IFM56528); assay: Antifungal activity test, inhibitory concentration by WST-8 viability in 96-well plate (Test Example 11); assay type: cell-based; conditions: M. pachydermatis IFM56528, 32° C. for 72 hours; for MIC: viability 0%, read-out: Inhibitory concentration MIC100; for MIC50: viability 50%
Procedure: Test Example 11: Antifungal Activity Test
Test Compounds: Compound No. 1 and Compound No. 6
Test Microbial Strain: Malassezia Pachydermatis (IFM56528)
The Malassezia microbe (Malassezia pachydermatis) cultured for 5 to 7 days in a Sabouraud dextrose medium (1% peptone, 4% dextrose) was suspended in physiological saline and a Malassezia microbe suspension was prepared in such a way as to have an absorbance of 0.0025 at 600 nm. The microbe suspension was placed in a 96-well plate at 190 µL/well, and 10 µL of the test compound dissolved in DMSO was added thereto in such a way as to provide a final concentration of 500, 250, 125, 62.5, 31.25, 16, 8, 4, 2, 1, or 0.5 ppm, and the 96-well plate was subjected to culturing at 32° C. for 72 hours. After culturing, 20 µL each of WST-8 (viable cell counting reagent, manufactured by Nacalai Tesque, Inc.) was added, and the 96-well plate was kept warm at 32° C. for 5 hours to develop a color. The absorbance at 450 nm was measured using a microplate reader (SpectraMax M2, manufactured by Molecular Devices, LLC). The absorbance of a well to which the test compound was added (absorbance in the inventive plot) and the absorbance of a well in the solvent to which the test compound was not added (absorbance in the non-agent treated plot) were measured, the viability (%) of the Malassezia microbe was determined according to the following expression, and the agent concentration at which the viability was 0% was defined as the minimum inhibitory concentration (MIC100). Further, the agent concentration at which the viability was 50% was defined as the half inhibitory concentration (MIC50).
[…] = [(absorbance in non-agent treated plot - absorbance in inventive plot)/absorbance in non-agent treated plot] × 100

| SMILES | Microbial count (cfu/ml) 7 Days after treatment ([1]; left ear canal swab) [cfu/ml] | Microbial count (cfu/ml) Immediately before treatment ([1]; left ear canal swab) | Total score (redness, earwax, itching, rash) 7 Days after treatment ([1]; left ear) | Improvement rate (%) of microbial count ([1]; left ear) [%] | Improvement rate (%) of symptom total score ([1]; left ear) [%] | Total score (redness, earwax, itching, rash) Immediately before treatment ([1]; left ear) | Microbial count (cfu/ml) 7 Days after treatment ([1]; right ear canal swab) [cfu/ml] | Microbial count (cfu/ml) Immediately before treatment ([1]; right ear canal swab) | Total score (redness, earwax, itching, rash) 7 Days after treatment ([1]; right ear) | Improvement rate (%) of microbial count ([1]; right ear) [%] | Improvement rate (%) of symptom total score ([1]; right ear) [%] | Total score (redness, earwax, itching, rash) Immediately before treatment ([1]; right ear) | MIC90 [2] [µg/mL] | MIC [2] [µg/mL] | MIC50 [2] [µg/mL] |
| --- | --- | --- | --- | --- | --- | --- | --- | --- | --- | --- | --- | --- | --- | --- | --- |
| Cc1ccc(-c2nc(C#N)[nH]c2Cl)cc1Cl [Compound No. 6, 5-chloro-4-(3-chloro-4-methylphenyl)-1H-imidazole-2-carbonitrile] | 20 | 5,300 cfu/ml | 0 | 99.6 | 100 | 3 | 20 | 2,800 cfu/ml | 0 | 99.3 | 100 | 3 | 4 (≈ 15.9 µM) | 4 (≈ 15.9 µM) | 2 (≈ 7.93 µM) |
| Cc1ccc(-c2nc(C#N)[nH]c2Cl)cc1 [Compound No. 1, 5-Chloro-4-(4-methylphenyl)-1H-imidazole-2-carbonitrile] | 30 | 900 cfu/ml | 1 | 96.7 | 67 | 3 | 30 | 1,300 cfu/ml | 1 | 97.7 | 67 | 3 | 16 (≈ 73.5 µM) | 16 (≈ 73.5 µM) | 8 (≈ 36.8 µM) |

Source: patent US20230255939A1, “Antimicrobial Agent for Non-Human Animal” (ISHIHARA SANGYO KAISHA, LTD, priority 2020, published 2023)
